Legend:
mice = assay: formalin paw test; type: in vivo, mouse
Description: AAK1 homozygous (−/−) and their wild-type (+/+) littermates were tested using the formalin paw test in order to assess their acute and tonic nociceptive responses. For these tests, Automatic Nociception Analyzers (purchased from the Ozaki lab at University of California, San Diego) were used. A metal band was placed around the left hind paw of each mouse 30 minutes prior to testing. After the 30-minute acclimation period, 20 μl of 5% formalin is subcutaneously injected in the dorsal surface of the left hind paw. Mice were individually housed in cylindrical chambers for 45 minutes. Fresh 5% formalin solution was prepared by diluting formaldehyde (Formalde-fresh 20%, Fisher Scientific, Fair Lawn, N.J.) with distilled water. Investigatory compounds were administered 30 minutes prior to formalin injection.
A computer recorded flinches per minute, total flinches for phase I (acute phase=first 8 minutes), and total flinches for phase II (tonic phase=time between minutes 20-40) through an electromagnetic field. See Yaksh T L, Ozaki G, McCumber D, Rathbun M, Svensson C, Malkmus S, Yaksh M C. An automated flinch detecting system for use in the formalin nociceptive bioassay. J Appl Physiol., 2001; 90:2386-402.
The same test was used to confirm that the administration of an AAK1 inhibitor can also affect pain response.
A compound of the disclosure was tested in this assay at different doses. Gabapentin and pregabalin were used as positive controls. Results are shown below in Table 2, wherein the effect of gabapentin at 200 mg/kg is considered a 100% response, the % response for the other compounds is relative to the 200 mg/kg dose of gabapentin, “sc” means subcutaneous administration; “po” means oral administration.

GST-Xa-hAAK1 = biological target: T1, GST-Xa-hAAK1 (Homo sapiens, UniProt Q2M2I8); assay: AAK1 kinase assay; type: biochemical; settings: ATP 22 μM
T1 construct: made in house
Description: The assays were performed in U-bottom 384-well plates. […] The reactions were initiated by the combination of bacterially expressed, GST-Xa-hAAK1 with substrates and test compounds. The reactions were incubated at room temperature for 3 hours and terminated by adding 60 μl of 35 mM EDTA buffer to each sample. The reactions were analyzed on the Caliper LabChip 3000 (Caliper, Hopkinton, Mass.) by electrophoretic separation of the fluorescent substrate and phosphorylated product. […] Compounds were dissolved at 10 mM in dimethylsulfoxide (DMSO) and evaluated at eleven concentrations. IC50 values were derived by non-linear regression analysis.

[1] = biological target: T2, AAK1 (full length human) in HEK293F cells (Homo sapiens, UniProt Q2M2I8); assay: HEK281 cell-based assay (phospho-mu2 Western blot in transfected HEK293F cells); settings: 3 hours
T2 construct: fused on or other part: HA tag (AAK1/HA in pIRES vector)
Description: On day one, cells were plated on a 10 cm dish so that they are ˜80% confluent at time oftransfection. Roughly 12 million cells were in a 10 cm dish at time of transfection. […] The DNA was comprised of a mixture (per 10 cm dish) containing 3 ug AAK1/HA/pIRES (full length human, NCBI accession no. NP_055726.2), 45 μg Flag/AP2MI/pcDNA (full length human), and 1.5 ml OPTI-MEM. The Lipofectamine 2000 is made up of a mixture (per 10 cm dish) containing 144 μl Lipofectamine 2000 and 1.5 ml OPTI-MEM. Each mixture was transferred to individual 15 ml tubes and incubated at RT for 5 minutes, and then the two mixes were combined and incubated at RT for 20 minutes. Growth media was then aspirated from each 10 cm plate and replaced with 10 ml of DMEM+10% FBS (no GPS). Finally, 3 ml DNA/Lipofectamine mix was added to each 10 cm dish and mix gently followed by incubate of plate overnight at 37° C. and 5% CO2.
On day three, compounds were diluted in 100% DMSO at 1000× final concentration, followed by 3-fold serial dilutions for a total of 5 concentrations tested. Four compounds were tested per 10 cm dish. One ul of each compound dilution was then pipetted into a deep-well, 96-well plate, followed by addition of 500 μl DMEM+0.5% FBS into each well for a 2× final concentration of each compound. Cells were resuspended in a 10 cm dish by simple pipetting (HEK293 cells come off the plate that easy at this point) and then transferred to a 50 ml conical tube and pelleted by centrifugation at 1000 rpm for 5 min. Cell pellets were then resuspended in 2.75 ml DMEM+0.5% FBS per 10 cm dish and 100 μl of cell suspension transferred into each well of 96-well TC plate. Finally, 100 μl of 2× compound diluted in DMEM+0.5% FBS was then added into wells containing cell suspension for a 1× final concentration. Plates were then incubated at 37° C. and 5% CO2 for 3 hours followed by transferring of cell suspensions from each well into 12-tube PCR strips. The PCR strips were spun in a tip rack at 1000 rpm for 5 minutes to pellet cells and media was then removed by pipetting without disturbing the cell pellet.
Five ul of 10× NuPage Sample Reducing Agent (with 50 mM DTT) was to each sample followed by heat denaturing at 70 C for 10 min on PCR machine. […] For controls, 2 ng of phospho-mu2 or 20 ng mu2/Flag proteins were loaded in the last well of each gel. After SDS-PAGE, samples on each gel were transferred to PVDF membrane using an iBlot and membranes were blocked for one hour in TBST+5% milk, followed by wash 3× for 5-10 min with TBST.
Finally, the camera was set up to take a picture every 30 seconds for 10 minutes and the best image saved for each blot with no saturated signal (when the signal is saturated, the bands will be highlighted red). A volume analysis on each band was performed to obtain density values. Percent inhibition was calculated for each sample by first normalizing to total Mu2 expression levels and then comparing to 0% and 100% controls. IC50 values were then calculated using Excel fitting software.

[2] = 50 mg/kg sc, relative to gabapentin 200 mg/kg = 100% response
[3] = phospho-mu2 normalized to total Mu2
[4] = phospho-mu2, given as IC50 range

T2 sequence (Q2M2I8 1-822 limits assumed): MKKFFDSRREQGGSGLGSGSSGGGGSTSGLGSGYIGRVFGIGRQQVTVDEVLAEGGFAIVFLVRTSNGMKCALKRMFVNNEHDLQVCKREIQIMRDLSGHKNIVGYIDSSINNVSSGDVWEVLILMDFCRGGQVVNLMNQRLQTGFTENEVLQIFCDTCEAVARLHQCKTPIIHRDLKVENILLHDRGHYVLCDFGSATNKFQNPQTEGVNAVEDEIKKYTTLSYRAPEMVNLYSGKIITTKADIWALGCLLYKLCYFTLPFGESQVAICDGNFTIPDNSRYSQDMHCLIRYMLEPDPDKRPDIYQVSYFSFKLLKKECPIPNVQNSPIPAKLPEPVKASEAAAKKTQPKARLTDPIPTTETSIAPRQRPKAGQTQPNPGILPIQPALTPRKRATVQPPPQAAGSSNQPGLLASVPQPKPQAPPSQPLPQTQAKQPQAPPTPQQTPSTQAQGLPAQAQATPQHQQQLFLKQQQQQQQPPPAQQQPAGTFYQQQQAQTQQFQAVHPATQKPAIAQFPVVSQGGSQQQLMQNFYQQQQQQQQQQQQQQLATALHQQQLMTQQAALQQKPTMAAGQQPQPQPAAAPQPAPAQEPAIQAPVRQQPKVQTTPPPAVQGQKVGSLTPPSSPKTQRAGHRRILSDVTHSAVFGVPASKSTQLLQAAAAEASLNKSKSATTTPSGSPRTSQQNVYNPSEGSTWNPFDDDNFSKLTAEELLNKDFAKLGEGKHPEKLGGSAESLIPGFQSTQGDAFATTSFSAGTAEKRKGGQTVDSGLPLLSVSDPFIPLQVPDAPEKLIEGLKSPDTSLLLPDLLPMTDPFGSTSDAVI
T1 sequence (Q2M2I8 whole entry): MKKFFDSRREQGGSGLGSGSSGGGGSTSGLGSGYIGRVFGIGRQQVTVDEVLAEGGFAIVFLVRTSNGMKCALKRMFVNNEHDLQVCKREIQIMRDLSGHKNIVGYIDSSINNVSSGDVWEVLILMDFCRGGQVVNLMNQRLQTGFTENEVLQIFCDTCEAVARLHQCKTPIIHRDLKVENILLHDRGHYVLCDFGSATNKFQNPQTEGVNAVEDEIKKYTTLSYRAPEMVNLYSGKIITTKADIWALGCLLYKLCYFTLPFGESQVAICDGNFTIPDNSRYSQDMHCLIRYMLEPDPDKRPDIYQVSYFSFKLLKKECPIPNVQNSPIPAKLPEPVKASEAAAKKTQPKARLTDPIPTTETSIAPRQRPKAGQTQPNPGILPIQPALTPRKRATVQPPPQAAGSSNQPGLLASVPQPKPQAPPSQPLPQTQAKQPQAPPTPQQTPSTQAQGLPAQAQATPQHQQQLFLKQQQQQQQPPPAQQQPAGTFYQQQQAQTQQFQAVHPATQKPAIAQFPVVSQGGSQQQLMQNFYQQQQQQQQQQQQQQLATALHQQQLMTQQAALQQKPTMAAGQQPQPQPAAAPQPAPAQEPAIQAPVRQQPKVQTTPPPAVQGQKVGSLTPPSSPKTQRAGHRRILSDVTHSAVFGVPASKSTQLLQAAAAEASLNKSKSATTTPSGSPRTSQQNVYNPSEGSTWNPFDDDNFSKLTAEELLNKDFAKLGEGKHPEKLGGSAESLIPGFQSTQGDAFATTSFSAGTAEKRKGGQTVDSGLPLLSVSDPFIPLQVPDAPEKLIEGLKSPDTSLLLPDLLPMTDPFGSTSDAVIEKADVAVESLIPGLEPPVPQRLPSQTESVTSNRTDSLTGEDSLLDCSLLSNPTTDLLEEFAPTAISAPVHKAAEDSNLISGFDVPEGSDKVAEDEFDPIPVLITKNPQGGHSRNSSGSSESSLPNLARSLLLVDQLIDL

SMILES | IC50 (GST-Xa-hAAK1; given as IC50 range) [nM] | IC50 [1, 4] [nM] | further results
NCC1(CC(=O)O)CCCCC1 [Gabapentin] | – | – | Response (mice; [2]): 60%; Response (mice; 200 mg/kg sc, considered a 100% response): 100%
Cn1c(=O)c2cnccc2c2cc(C#N)c(OCC(N)CCC(F)(F)F)cc21 (stereo not drawn) [Example 126, 8-((2-amino-5,5,5-trifluoropentyl)oxy)-6-methyl-5-oxo-5,6-dihydrobenzo[c][2,7]naphthyridine-9-carbonitrile] | – | – | IC50 (GST-Xa-hAAK1; 3 hours at room temperature): 16 nM; IC50 [1, 3]: 56 nM
Cc1nccc2c1c(=O)n(C)c1cc(OCC(N)CC(F)(F)F)c(Br)cc21 (single isomer, unassigned) [Example 139, 8-(2-amino-4,4,4-trifluorobutoxy)-9-bromo-4,6-dimethylbenzo[c][2,7]naphthyridin-5(6H)-one] | < 1 | 1 to 10 | –
CC(C)C[C@H](N)COc1cc2c(cc1F)c1ccncc1c(=O)n2C [Example 14, (S)-8-((2-amino-4-methylpentyl)oxy)-9-fluoro-6-methylbenzo[c][2,7]naphthyridin-5(6H)-one] | – | – | Response (mice; 30 mg/kg po, relative to gabapentin 200 mg/kg = 100% response): 62%
Cc1nccc2c1c(=O)n(C)c1cc(OC[C@@H](N)CC(C)C)c(Br)cc21 [Example 122, (S)-8-((2-amino-4-methylpentyl)oxy)-9-bromo-4,6-dimethylbenzo[c][2,7]naphthyridin-5(6H)-one] | 1 to 10 | 1 to 10 | –
Cn1c(=O)c2cnccc2c2cc(Cl)c(OCC(N)CC(F)(F)F)cc21 (stereo not drawn) [Example 141, 8-(2-amino-4,4,4-trifluorobutoxy)-9-chloro-6-methylbenzo[c][2,7]naphthyridin-5(6H)-one] | 1 to 10 | 10 to 100 | –
CC(C)C[C@H](CN)CC(=O)O [Pregabalin, pregabalin] | – | – | Response (mice; [2]): 90%
Cc1nccc2c1c(=O)n(C)c1cc(OC[C@H](N)CC(C)C)c(Br)cc21 [Example 133, (R)-8-((2-amino-4-methylpentyl)oxy)-9-bromo-4,6-dimethylbenzo[c][2,7]naphthyridin-5(6H)-one] | – | – | IC50 (GST-Xa-hAAK1; 3 hours at room temperature): 0.4 nM; IC50 [1, 3]: 2.3 nM
Cn1c(=O)c2c(N)nccc2c2ccc(OCC(N)CCC(F)(F)F)cc21 (stereo not drawn) [Example 118, 4-amino-8-((2-amino-5,5,5-trifluoropentyl)oxy)-6-methylbenzo[c][2,7]naphthyridin-5(6H)-one] | 1 to 10 | 10 to 100 | –
Cc1nccc2c1c(=O)n(C)c1cc(OC[C@@H](N)CC(C)C)c(C(C)C)cc21 [Example 129, (S)-8-((2-amino-4-methylpentyl)oxy)-9-isopropyl-4,6-dimethylbenzo[c][2,7]naphthyridin-5(6H)-one] | 1 to 10 | 1 to 10 | –

Source: patent US20160333006A1, “ARYL LACTA KINASE INHIBITORS” (Bristol-Myers Squibb Company, priority 2014, published 2016)
